Data as given in ChEMBL document CHEMBL1201862, “PubChem BioAssay data set” (2004).
Activity calls are given as the source filed them.

Key:
[1] = target: Mu-type opioid receptor (Homo sapiens, UniProt P35372); assay: (§1) Counterscreen for agonists of heterodimerization of the mu 1 (OPRM1) and delta 1 (OPRD1) opioid receptors: Luminescence-based cell-based high throughput dose response assay to identify agonists of OPRM1 homodimerization.; type: functional
[2] = HepG2 cell cytotoxicity, dose response, cytotoxicity control, ATP luminescence, cherry-pick, activator set 2 (AID 1053143); type: functional, cell-based
[3] = system: Vero; assay: cells; type: functional; conditions: Chlorocebus sabaeus
[4] = system: Vero; assay: cells; type: functional, cell-based; conditions: Chlorocebus sabaeus
[5] = target: Delta-type opioid receptor (Homo sapiens, UniProt P41143); assay: as §1, with “of OPRD1” for “of OPRM1”, “homodimerization. [Related pubchem assays (depositor defined):AID504326, AID504355, AID504692, AID504904, AID504905]” for “homodimerization.”; type: functional
[6] = target: 5-hydroxytryptamine receptor 5A (Homo sapiens, UniProt P47898); assay: Counterscreen for agonists of OPRM1-OPRD1 heterodimerization: luminescence-based cell-based high throughput dose response assay to identify agonists of 5-hydroxytryptamine (serotonin) 5A receptor (HTR5A). [Related pubchem assays (depositor defined):AID504326, AID504355, AID504692, AID504904, AID504905]; type: functional
[7] = target: T1, Microphthalmia-associated transcription factor (Homo sapiens, UniProt O75030); assay: TRPM1 promoter luciferase signal decrease, dose response, MITF inhibitor project, cell-based, SK-MEL-5, cherry-picked, set 3 (AID 493073); type: functional
T1 sequence (O75030 whole entry): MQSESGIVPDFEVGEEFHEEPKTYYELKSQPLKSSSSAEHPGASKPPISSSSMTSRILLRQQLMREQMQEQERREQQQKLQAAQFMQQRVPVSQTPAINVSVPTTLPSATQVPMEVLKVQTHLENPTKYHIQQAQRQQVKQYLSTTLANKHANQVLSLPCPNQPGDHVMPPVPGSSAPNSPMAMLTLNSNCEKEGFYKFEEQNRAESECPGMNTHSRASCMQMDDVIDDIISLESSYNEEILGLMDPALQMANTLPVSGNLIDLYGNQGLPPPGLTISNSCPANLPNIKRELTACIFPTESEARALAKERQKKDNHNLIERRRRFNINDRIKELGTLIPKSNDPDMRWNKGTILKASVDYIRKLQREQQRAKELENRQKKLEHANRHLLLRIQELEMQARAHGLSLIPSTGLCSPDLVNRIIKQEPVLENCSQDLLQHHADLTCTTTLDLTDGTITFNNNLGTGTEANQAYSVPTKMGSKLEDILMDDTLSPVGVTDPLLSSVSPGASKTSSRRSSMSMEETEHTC

[8] = system: A-375; assay: A375 melanoma cell viability reduction, dose response, counter-screen for MITF modulator project, cherry-pick samples, set 2 (AID 540335); type: functional, cell-based; conditions: Homo sapiens
[9] = target: CAAX prenyl protease 2 (Homo sapiens, UniProt Q9Y256); assay: human Rce1 protease inhibitors, dose response, biochemical, yeast membranes, quenched-peptide fluorescence, cherry-pick (AID 588849)
[10] = target: T2, CAAX prenyl protease 2 (Saccharomyces cerevisiae S288c, UniProt Q03530); type: biochemical
T2 sequence (Q03530 whole entry): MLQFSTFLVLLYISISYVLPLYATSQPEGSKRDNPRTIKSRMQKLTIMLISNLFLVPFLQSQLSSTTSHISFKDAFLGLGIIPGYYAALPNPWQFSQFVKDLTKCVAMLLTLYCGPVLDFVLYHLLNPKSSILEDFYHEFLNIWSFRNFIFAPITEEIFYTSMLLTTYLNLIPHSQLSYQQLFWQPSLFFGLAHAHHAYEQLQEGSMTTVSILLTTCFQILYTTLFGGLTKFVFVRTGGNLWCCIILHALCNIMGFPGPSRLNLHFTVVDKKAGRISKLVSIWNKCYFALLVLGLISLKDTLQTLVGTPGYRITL

[11] = target: Type-1 angiotensin II receptor (Homo sapiens, UniProt P30556); assay: AT1 receptor antagonists, dose response, selectivity assay for APJ receptor antagonist project, cell-based, uHTS hits (AID 463214); type: functional;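 also: antagonist potency against angiotensin II stimulated AT1 response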
[12] = target: Beta-galactosidase (Escherichia coli, UniProt Q8VNN2); assay: PubChem AID 485352; type: functional
Beta-galactosidase, sequence (Q8VNN2 whole entry): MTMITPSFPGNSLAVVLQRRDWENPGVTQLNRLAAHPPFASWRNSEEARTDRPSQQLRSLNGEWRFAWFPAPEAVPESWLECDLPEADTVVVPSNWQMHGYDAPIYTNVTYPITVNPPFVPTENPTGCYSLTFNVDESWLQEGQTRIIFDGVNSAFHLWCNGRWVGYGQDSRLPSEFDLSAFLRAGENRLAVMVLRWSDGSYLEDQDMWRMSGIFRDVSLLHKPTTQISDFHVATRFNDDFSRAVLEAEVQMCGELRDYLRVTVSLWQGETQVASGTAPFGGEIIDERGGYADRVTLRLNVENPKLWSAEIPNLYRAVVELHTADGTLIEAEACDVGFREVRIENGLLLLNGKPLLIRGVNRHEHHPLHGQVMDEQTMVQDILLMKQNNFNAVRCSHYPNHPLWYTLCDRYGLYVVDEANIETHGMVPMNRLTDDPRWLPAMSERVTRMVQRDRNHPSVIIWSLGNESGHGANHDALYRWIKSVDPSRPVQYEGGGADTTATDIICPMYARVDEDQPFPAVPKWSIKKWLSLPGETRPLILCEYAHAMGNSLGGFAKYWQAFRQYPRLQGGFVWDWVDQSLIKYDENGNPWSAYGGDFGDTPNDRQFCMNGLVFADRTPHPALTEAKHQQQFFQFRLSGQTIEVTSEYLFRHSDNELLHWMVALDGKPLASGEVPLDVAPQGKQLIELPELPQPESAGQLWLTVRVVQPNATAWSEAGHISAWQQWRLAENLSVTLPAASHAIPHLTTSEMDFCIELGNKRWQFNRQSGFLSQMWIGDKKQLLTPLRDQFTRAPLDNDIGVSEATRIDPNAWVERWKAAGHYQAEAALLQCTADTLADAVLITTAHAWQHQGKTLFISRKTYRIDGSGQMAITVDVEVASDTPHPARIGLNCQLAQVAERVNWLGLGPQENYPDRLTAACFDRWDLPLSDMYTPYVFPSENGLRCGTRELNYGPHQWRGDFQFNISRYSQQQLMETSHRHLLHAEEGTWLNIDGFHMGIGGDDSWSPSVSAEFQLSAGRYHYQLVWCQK

Delta-type opioid receptor, sequence (P41143 whole entry): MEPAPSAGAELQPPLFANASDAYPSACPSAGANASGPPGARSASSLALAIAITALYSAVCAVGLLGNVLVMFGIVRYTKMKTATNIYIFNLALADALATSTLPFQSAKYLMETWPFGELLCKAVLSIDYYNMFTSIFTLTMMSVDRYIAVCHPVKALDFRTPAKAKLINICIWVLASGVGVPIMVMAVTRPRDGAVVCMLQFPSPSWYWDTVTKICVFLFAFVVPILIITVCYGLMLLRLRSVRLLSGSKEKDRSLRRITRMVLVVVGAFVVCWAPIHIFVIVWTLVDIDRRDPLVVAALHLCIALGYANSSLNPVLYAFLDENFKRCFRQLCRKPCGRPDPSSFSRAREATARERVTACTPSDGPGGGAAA
Mu-type opioid receptor, sequence (P35372 whole entry): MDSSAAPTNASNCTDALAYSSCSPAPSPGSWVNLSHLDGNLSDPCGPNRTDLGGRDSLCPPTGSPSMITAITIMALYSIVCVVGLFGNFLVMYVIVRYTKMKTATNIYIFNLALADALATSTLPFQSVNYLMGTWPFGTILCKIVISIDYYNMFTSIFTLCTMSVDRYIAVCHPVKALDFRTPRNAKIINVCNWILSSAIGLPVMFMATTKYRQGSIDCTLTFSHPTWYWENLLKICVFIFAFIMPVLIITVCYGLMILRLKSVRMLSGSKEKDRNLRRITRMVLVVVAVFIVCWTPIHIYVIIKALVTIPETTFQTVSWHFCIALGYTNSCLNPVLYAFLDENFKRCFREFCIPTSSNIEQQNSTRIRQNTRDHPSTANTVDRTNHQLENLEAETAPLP
Type-1 angiotensin II receptor, sequence (P30556 whole entry): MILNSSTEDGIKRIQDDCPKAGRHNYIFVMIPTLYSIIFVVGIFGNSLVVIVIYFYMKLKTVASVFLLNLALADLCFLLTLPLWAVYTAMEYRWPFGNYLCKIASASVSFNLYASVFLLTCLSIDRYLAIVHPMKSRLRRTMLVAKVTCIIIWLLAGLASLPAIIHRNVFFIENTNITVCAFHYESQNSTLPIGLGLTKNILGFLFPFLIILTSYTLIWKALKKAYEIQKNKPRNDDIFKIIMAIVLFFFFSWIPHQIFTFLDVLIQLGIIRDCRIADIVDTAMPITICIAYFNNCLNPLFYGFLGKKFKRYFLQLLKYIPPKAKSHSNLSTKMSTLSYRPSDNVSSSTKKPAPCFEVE
5-hydroxytryptamine receptor 5A, sequence (P47898 whole entry): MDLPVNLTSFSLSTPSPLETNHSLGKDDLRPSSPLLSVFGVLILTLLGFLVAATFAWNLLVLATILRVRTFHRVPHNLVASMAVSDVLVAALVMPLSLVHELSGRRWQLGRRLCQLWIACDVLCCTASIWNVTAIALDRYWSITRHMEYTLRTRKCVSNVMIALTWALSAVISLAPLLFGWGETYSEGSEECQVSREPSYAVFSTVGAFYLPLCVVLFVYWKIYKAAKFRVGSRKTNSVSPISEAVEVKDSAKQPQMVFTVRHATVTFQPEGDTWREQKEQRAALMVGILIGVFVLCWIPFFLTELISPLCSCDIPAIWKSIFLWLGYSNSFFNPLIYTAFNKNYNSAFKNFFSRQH
CAAX prenyl protease 2 (Homo sapiens, UniProt Q9Y256), sequence (Q9Y256 whole entry): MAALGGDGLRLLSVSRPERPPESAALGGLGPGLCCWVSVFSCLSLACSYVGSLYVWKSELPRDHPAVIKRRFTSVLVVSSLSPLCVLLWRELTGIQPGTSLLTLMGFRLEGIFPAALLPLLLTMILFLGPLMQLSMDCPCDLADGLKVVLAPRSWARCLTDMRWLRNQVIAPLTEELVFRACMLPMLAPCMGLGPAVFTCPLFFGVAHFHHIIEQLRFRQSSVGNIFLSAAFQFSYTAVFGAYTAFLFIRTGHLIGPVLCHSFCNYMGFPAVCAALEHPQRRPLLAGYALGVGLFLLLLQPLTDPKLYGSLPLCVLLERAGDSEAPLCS

Which EC50 [1] does the source give for `CN1CCN(c2ccc(NC(=O)c3ccc(-c4ccccc4F)o3)cc2)CC1` here?
The EC50 was 26.3 µM (inactive).

What about the AC50 [2] of the same molecule?
Its AC50 is 26 µM (active).

What about the CC50 [3] of the same molecule?
The CC50 was > 25 µM (active).

And the IC50 [4]?
Its IC50 is 24.8 µM (active).

And the EC50 [5]?
The EC50 was 32.6 µM (inactive).

What about the EC50 [6] of the same molecule?
The EC50 was > 92.5 µM (inactive).

For `CC(C)Oc1ccc(C(CCNCc2ccc(O)cc2)c2ccccc2)cc1` (configuration not stated), which AC50 [7] is on record?
The AC50 was 12.8 µM (active).

What about the AC50 [8] of the same molecule?
Its AC50 is 18.8 µM (active).

What does the source list for `COc1ccc(-c2c(C)oc3c(CN4CCN(C)CC4)c(O)ccc3c2=O)cc1`?
AC50 [9]: 3.72 µM (active); AC50 [10]: 28.6 µM (active)

What does the source list for `CCOC(=O)C1=C(C)N=C2CC(c3cccs3)CC(O)=C2C1c1cccs1` (configuration not stated)?
IC50 [11]: 36 µM (not active); EC50 [12]: 39.3 µM (active)
